Assays:
[1] = molecular target: T1, wild-type Androgen Receptor (AR-wt) (Homo sapiens (Human), UniProt P10275); experiment: LNCaP-AR-wt AG reporter assay (agonist mode); type: cell-based; conditions: for EC50: agonist mode, pEC50 = −Log10(EC50 in Molar), read-out: LNCaP-AR-wt AG pEC50 (converted); for Emax: maximum % stimulation (agonist response) over the tested concentration range, read-out: LNCaP-AR-wt AG MAX % Stim
[2] = test system: rGABA-gated Cl− channel; experiment: GABA-Gated Cl Channel Antagonist Radioligand Binding Assay; set-up: species or system rat; conditions: 10 μM single point, [35S]-TBPS, cerebral cortex membrane homogenates
Outline: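 Values give percent inhibition of control specific […] (3 nM) binding at a single 10 μM compound concentration. Cerebral cortex membranes, 120 min, 22° C, phosphate buffer pH 7.4 with 500 mM NaCl; 20 μM picrotoxinin sets nonspecific binding; filtration and scintillation read-out.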

[3] = molecular target: T2, F876L mutant Androgen Receptor (AR-F876L) (Homo sapiens (Human), UniProt P10275, F877L); experiment: LNCaP-AR-F876L ANT reporter assay (antagonist mode); type: cell-based; conditions: for IC50: antagonist mode, pIC50 = −Log10(IC50 in Molar), read-out: LNCaP-AR-F876L ANT pIC50 (converted); for Emax: maximum % inhibition of R1881 control response over the tested concentration range, read-out: LNCaP-AR-F876L ANT MAX % Inh
[4] = molecular target: T2, F876L mutant Androgen Receptor (AR-F876L); experiment: LNCaP-AR-F876L AG reporter assay (agonist mode); type: cell-based; conditions: for EC50: agonist mode, pEC50 = −Log10(EC50 in Molar), read-out: LNCaP-AR-F876L AG pEC50 (converted); for Emax: maximum % stimulation (agonist response) over the tested concentration range, read-out: LNCaP-AR-F876L AG MAX % Stim
[5] = molecular target: T1, wild-type Androgen Receptor (AR-wt); experiment: LNCaP-AR-wt ANT reporter assay (antagonist mode); type: cell-based; conditions: for IC50: antagonist mode, pIC50 = −Log10(IC50 in Molar), read-out: LNCaP-AR-wt ANT pIC50 (converted); for Emax: maximum % inhibition of R1881 control response over the tested concentration range, read-out: LNCaP-AR-wt ANT MAX % Inh

T2 sequence (P10275 whole entry F877L): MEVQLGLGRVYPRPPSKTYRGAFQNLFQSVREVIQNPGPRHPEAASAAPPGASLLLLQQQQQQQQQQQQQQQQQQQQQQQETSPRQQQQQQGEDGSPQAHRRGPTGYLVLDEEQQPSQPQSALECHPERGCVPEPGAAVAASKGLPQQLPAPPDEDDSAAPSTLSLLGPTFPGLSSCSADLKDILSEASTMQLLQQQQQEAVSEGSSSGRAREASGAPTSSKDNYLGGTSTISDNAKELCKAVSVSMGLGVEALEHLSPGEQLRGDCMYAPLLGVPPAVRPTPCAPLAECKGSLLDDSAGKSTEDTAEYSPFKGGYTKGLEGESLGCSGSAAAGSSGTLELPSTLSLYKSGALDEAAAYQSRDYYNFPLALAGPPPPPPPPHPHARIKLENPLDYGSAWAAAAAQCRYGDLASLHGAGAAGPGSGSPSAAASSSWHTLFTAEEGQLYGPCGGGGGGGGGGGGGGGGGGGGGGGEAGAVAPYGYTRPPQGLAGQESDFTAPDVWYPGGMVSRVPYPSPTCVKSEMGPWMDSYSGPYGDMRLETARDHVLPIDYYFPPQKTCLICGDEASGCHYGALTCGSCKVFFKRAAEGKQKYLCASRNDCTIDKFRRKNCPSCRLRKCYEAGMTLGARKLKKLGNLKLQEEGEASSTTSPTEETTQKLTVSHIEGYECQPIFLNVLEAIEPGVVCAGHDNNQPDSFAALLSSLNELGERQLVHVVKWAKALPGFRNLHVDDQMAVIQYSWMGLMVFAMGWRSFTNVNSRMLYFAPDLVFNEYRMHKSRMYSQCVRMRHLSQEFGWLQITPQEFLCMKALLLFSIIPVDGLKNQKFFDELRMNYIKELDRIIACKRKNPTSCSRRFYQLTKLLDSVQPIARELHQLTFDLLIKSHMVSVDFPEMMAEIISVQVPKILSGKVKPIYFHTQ
T1 sequence (P10275 whole entry): as the sequence (P10275 whole entry F877L) above, with L877F counted along it

SMILES | EC50 [1] [nM] | Emax [1] [%] | rGABA-gated Cl− channel % inh @10 μM [2] [%] | IC50 [3] [nM] | Emax [3] [%] | EC50 [4] [nM] | Emax [4] [%] | IC50 [5] [nM] | Emax [5] [%]
N#Cc1ncc(N2C(=O)C3(CCC3)N(c3ccc(N4CCN(C(=O)N5CCCC5)CC4)cc3)C2=S)cc1C(F)(F)F [Cpd 76, 5-(8-oxo-5-(4-(4-(pyrrolidine-1-carbonyl)piperazin-1-yl)phenyl)-6-thioxo-5,7-diazaspiro[3.4]octan-7-yl)-3-(trifluoromethyl)picolinonitrile] | > 15100 | 0.6 | 85.4 | 141 | 97.5 | > 15100 | 2.2 | 93.3 | 102
N#Cc1ncc(N2C(=O)C3(CCC3)N(c3ccc(OC4CCN(CCF)CC4)cc3)C2=S)cc1C(F)(F)F [Cpd 77, 5-[8-[4-[[1-(2-fluoroethyl)-4-piperidyl]oxy]phenyl]-5-oxo-7-thioxo-6,8-diazaspiro[3.4]octan-6-yl]-3-(trifluoromethyl)pyridine-2-carbonitrile] | > 15100 | 0.2 | 53.8 | 30.9 | 100 | > 15100 | 0.3 | 37.2 | 102
CNC1CCC(Oc2ccc(N3C(=S)N(c4cnc(C#N)c(C(F)(F)F)c4)C(=O)C34CCC4)cc2)CC1 (stereo not drawn) [Cpd 80, 5-[8-[4-[4-(methylamino)cyclohexoxy]phenyl]-5-oxo-7-thioxo-6,8-diazaspiro[3.4]octan-6-yl]-3-(trifluoromethyl)pyridine-2-carbonitrile] | > 15100 | 0.6 | 33.7 | 11.2 | 100 | > 15100 | 0.1 | 25.1 | 102
CN(C)C1CCC(Oc2ccc(N3C(=S)N(c4cnc(C#N)c(C(F)(F)F)c4)C(=O)C34CCC4)cc2)CC1 (stereo not drawn) [Cpd 81, 5-[8-[4-[4-(dimethylamino)cyclohexoxy]phenyl]-5-oxo-7-thioxo-6,8-diazaspiro[3.4]octan-6-yl]-3-(trifluoromethyl)pyridine-2-carbonitrile] | > 15100 | 0.4 | 28.8 | 17 | 101 | > 15100 | 0.1 | 28.2 | 102
N#Cc1ncc(N2C(=O)C3(CCC3)N(c3ccc(OCCN4CCC5(CCOC5)CC4)cc3)C2=S)cc1C(F)(F)F [Cpd 82, 5-[8-[4-[2-(3-oxa-8-azaspiro[4.5]decan-8-yl)ethoxy]phenyl]-5-oxo-7-thioxo-6,8-diazaspiro[3.4]octan-6-yl]-3-(trifluoromethyl)pyridine-2-carbonitrile] | > 15100 | 0.4 | 36.7 | 100 | 97.5 | > 15100 | 0.8 | 155 | 98.7

More lines, now with the values ahead:

EC50 [1] [nM] | Emax [1] [%] | rGABA-gated Cl− channel % inh @10 μM [2] [%] | IC50 [3] [nM] | Emax [3] [%] | EC50 [4] [nM] | Emax [4] [%] | IC50 [5] [nM] | Emax [5] [%] | SMILES
> 15100 | 1.2 | 3.8 | 22.9 | 100 | > 15100 | 0 | 93.3 | 101 | Cc1cc(N2C(=O)C3(CCC3)N(c3ccc(OC4CCN(CCF)CC4)nc3)C2=S)cnc1C#N [Cpd 78, 5-[8-[6-[[1-(2-fluoroethyl)-4-piperidyl]oxy]-3-pyridyl]-5-oxo-7-thioxo-6,8-diazaspiro[3.4]octan-6-yl]-3-methyl-pyridine-2-carbonitrile]
> 15100 | 1.2 | 11.5 | 8.13 | 98.5 | > 15100 | 1.3 | 6.76 | 101 | N#Cc1ncc(N2C(=O)C3(CCC3)N(c3ccc(OC4CCN(CCO)CC4)nc3)C2=S)cc1Cl [Cpd 79, 3-chloro-5-[8-[6-[[1-(2-hydroxyethyl)-4-piperidyl]oxy]-3-pyridyl]-5-oxo-7-thioxo-6,8-diazaspiro[3.4]octan-6-yl]pyridine-2-carbonitrile]
